Measured values published in patent EP0535528A1, “Antibacterial 5-Nitro-1-methyl-imidazolyl-3-terbutyl-2-hydroxy-aryl-carbinols” (EURORESEARCH S.r.L., priority 1991, dated 1993).

Tested on: Swiss female albino mice
Assay: Oral and intraperitoneal acute toxicity in mice (LD50, Probits method)
Format: in vivo
Details: for Mortality per day: 5 animals; for mortality: intraperitoneal
How it was run: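 Fasted (16 h) female mice, 5 per dose, dosed orally at 5000 mg/kg in 0.5% carboxymethylcellulose or i.p. at 2000 mg/kg in physiological solution; further doses given if deaths occurred. Mortality and behaviour observed 14 days; LD50 from cumulative mortality by Probits method.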

SMILES: COc1cc(C(O)c2ncc([N+](=O)[O-])n2C)c(O)c(C(C)(C)C)c1 (stereo not drawn) [EU11100, 5-nitro-1-methyl-imidazolyl-3-terbutyl-2-hydroxy-5-methoxy-phenyl-carbinol]
- LD50 i.p. (Swiss female mice, ip, 14 days observation, 20160 min): LD50 i.p.= 890 mg/Kg (confidence limits: 781 - 1014)
- Observation on the behaviour (ip, 500 mg/Kg): 500 mg/Kg: no alteration
- Mortality per day (ip, 500 mg/Kg, day 1): 0
- Observation on the behaviour (ip, 750 mg/Kg): 750 mg/Kg: motor activity reduction
- Mortality per day (ip, 750 mg/Kg, day 1): 1
- Mortality per day (ip, 1000 mg/Kg, day 1): 3
- Mortality per day (ip, 1500 mg/Kg, day 1): 5
- Mortality per day (ip, 2000 mg/Kg, day 1): 5
- Death within (time) (ip, doses 2000 - 1500 - 1000 mg/Kg): 6 to 24 h
- Observation on the behaviour (ip, doses 2000 - 1500 - 1000 mg/Kg, after 15-30'): considerable behaviouristic alteration, such as the loss of body-righting reflex
- Observation on the behaviour (ip, doses 2000 - 1500 - 1000 mg/Kg, after 15-30', listed as EU 11100): considerable reduction motor activity and subsequent loss of body righting reflex
- mortality (mice, 1500 mg/kg): 100%
- mortality (mice, 2000 mg/kg): 100%
- toxicity when intraperitoneally administered (mice, intraperitoneal, 2000, 1500 and 1000 mg/kg): toxic
- toxicity when orally administered (mice, oral, 5000 mg/kg): not toxic
- Observation on the behaviour (os, 5000 mg/Kg): No alteration
- Mortality per day (os, 5000 mg/Kg, day 1): 0
- Mortality per day (os, 5000 mg/Kg, day 2): 0
- Mortality per day (os, 5000 mg/Kg, day 3): 0
- Mortality per day (os, 5000 mg/Kg, day 4): 0
- Mortality per day (os, 5000 mg/Kg, day 5): 0
- Mortality per day (os, 5000 mg/Kg, day 6): 0
- Mortality per day (os, 5000 mg/Kg, day 7): 0
- Mortality per day (os, 5000 mg/Kg, day 8): 0
- Mortality per day (os, 5000 mg/Kg, day 9): 0
- Mortality per day (os, 5000 mg/Kg, day 10): 0
- Mortality per day (os, 5000 mg/Kg, day 11): 0
- Mortality per day (os, 5000 mg/Kg, day 12): 0
- Mortality per day (os, 5000 mg/Kg, day 13): 0
- Mortality per day (os, 5000 mg/Kg, day 14): 0
